Measurements published in patent EP3427727A1, “COMBINATION OF BIOLOGICALLY ACTIVE SUBSTANCES FOR STABILIZING OR INCREASING THE COLLAGEN CONTENT” (BioActive Food GmbH, priority 2017, dated 2019).

Tested on: Kollagen-Synthese
Test: Cellular test of collagen synthesis (method of Suh et al.; Biocolor collagen assay, detects collagen types I-IV)
Format: cell-based
From the text: In einem zellulären Test wurde die Wirkung von Vitamin K1 und Lutein auf die Kollagen-Synthese untersucht. Die Untersuchung erfolgte nach dem in Suh et al. (Biol Pharm Bull. 2009 Apr; 32(4):746-9) beschriebenen Verfahren. Das gebildete Kollagen wurde mit Hilfe eines Standardassays (Firma Biocolor Ltd., Carrickfergus, Großbritannien) bestimmt. Der Assay war in der Lage, Kollagen des Typs I-IV zu erfassen.

| Compound | activity at 2 µM (Lutein 2 µM, Kontrolle = 100 %, read-out: Kollagen (relativ)) [%] | activation at 2 µM (Lutein 2 µM, increase over control, read-out: Erhöhung (Kollagen)) [%] | activity at 0.5 µM (Vitamin K 0,5 µM, Kontrolle = 100 %, read-out: Kollagen (relativ)) [%] | activation at 0.5 µM (Vitamin K 0,5 µM, increase over control, read-out: Erhöhung (Kollagen)) [%] |
| --- | --- | --- | --- | --- |
| CC1=C[C@H](O)CC(C)(C)[C@H]1/C=C/C(C)=C/C=C/C(C)=C/C=C/C=C(C)/C=C/C=C(C)/C=C/C1=C(C)C[C@@H](O)CC1(C)C [Lutein, (3R,6'R)-β-ε-Carotin-3,3'-diol] | 105 | 5 |  |  |
| CC1=C(C/C=C(\C)CCC[C@H](C)CCC[C@H](C)CCCC(C)C)C(=O)c2ccccc2C1=O [Vitamin K, Vitamin K1] |  |  | 116 | 16 |
